Data on six molecules can be found in paper PMC3462190, “A Peptidic Unconjugated GRP78/BiP Ligand Modulates the Unfolded Protein Response and Induces Prostate Cancer Cell Death” (PLoS ONE, 2012).

The subject of one assay is 22Rv.1 cells. The assay can be described thus: Clonogenic assay. The following applies: neomycin selection, colonies quantified; mean ± SEM of at least three independent experiments. It counts as cell-based. An excerpt:
Figure 5 An N-terminal unfolded fragment of the Bag-1 peptide is sufficient to reduce tumor cell growth. A. Schematic diagram of the Bag-1 peptide and its deletion mutants. The ubiquitin-like domain is represented in blue and the BAG domain in red. The numbers refer to the amino acid positions of the different domains. The amino acid residues are numbered following the numbering for Bag-1L. B. Prediction of the secondary structure of the Bag-1 peptide, showing an N-terminal β-hairpin from the ubiquitin-like domain (blue) and a C-terminal α-helix from the BAG domain (red). C. Normalized circular dichroism spectra of the Bag-1 peptides. 30 µM of the Bag-1 peptide were measured in 20 mM KHPO4 buffer, pH 6.8 (black line). Its α-helical content was estimated to be approximately 25% by deconvolution of the spectra (red line). 12 µM of the N-term peptide (green line) and 11 µM of C-term (blue line) were measured under the same conditions. D. ^1H^15N-HSQC NMR spectrum of ^15N-labeled Bag-1 peptide (202–269) in 20 mm KHPO4 buffer, pH 6.8, at 23°C. […] The Hδ and Hε side chain signals of asparagine and glutamine are connected by thin lines. E. The N-terminal region of the Bag-1 peptide is important for GRP78 binding. 400 µg of 22Rv.1 cell lysate were incubated with glutathione-agarose beads carrying 15 µg GST-N-term peptide (lane 2), GST-C-term peptide (lane 3), GST-ΔUbi peptide (lane 4), GST-Bag-1(202–269) peptide (lane 5) and GST (lane 6). The beads were washed and the bound proteins were separated by 10% SDS-PAGE and subjected to Western blotting using antibodies directed against GRP78 or GST. […] F. Clonogenic assay of the Bag-1 peptides expressed in 22Rv.1 cells. Cells transfected with the indicated constructs were selected in medium containing neomycin and the colonies formed were quantified. Shown are the mean value ±SEM of at least three independent experiments using three different plasmid preparations (*p<0.05). […] Six-week old athymic nude mice were injected subcutaneously on both flanks with 5×10^6 cells of each stable clone. Tumor size was measured once per week using a caliper and expressed as tumor volume in mm^3. Shown are the tumor volumes of clones transfected with the N-terminal peptide (G), the C-terminal peptide (H) and the ΔUbi peptide (I). Each point represents the mean volume and standard deviation of at least 5 to 10 tumors.
(§1) Figure 6 Selectivity of action of the Bag-1 peptide. A Amino acid sequence of the 19mer peptide and its deletion mutants. B GST pull-down assay performed incubating 400 µg of 22Rv.1 cell lysate and 25 µg of GST-fused deletion mutants of the 19mer peptide. After the pull-down experiment, Western blots were carried out with anti-GRP78/BiP and GST antibodies. C. Fluorescence polarization (FP) assays with a 10 nM FITC-labeled 7-mer Bag-1 peptide and dilutions of the GST-fused substrate binding domain of GRP78 in 60 µl of Tris-GSH buffer (50 mM Tris, 10 mM reduced glutathione and 0.1% BSA, pH 8.0). Triplicate samples were measured after 5 h of incubation at room temperature with an Infinite F-200 reader (Tecan) with excitation at 490 nm and emission at 535 nm. Binding constants were determined from three independent experiments using non-linear regression in Sigma Plot 10.0. D. Competition assays with a complex of 10 nM of FITC-labeled Bag-1 7-mer peptide and 0.75 mg/ml GST-fused GRP78 substrate binding domain was measured against a dilution series from 100 µM to 0.1 nM of wild-type Bag-1 7-mer peptide (filled line) or triple mutant peptide (dotted line) in 40 µl of Tris-GSH buffer. FITC-peptide and the FITC-peptide-protein complex were used as controls. Fluorescence polarization was determined as described above and IC50 values were determined in Sigma Plot. […]

In assay [1] the test system is LNCaP prostate cancer cells. The assay is described as follows: ATF6 Western blot in LNCaP cells. It counts as cell-based. The note with it: thapsigargin. Here is the method: (§2) A. Real time PCR analysis of ATF6 gene expression following thapsigargin (300 nM) treatment for the indicated time points in 22Rv.1 cell clones with empty vector control (open bars) and peptide-expressing clones (filled bars). The RNA was extracted using PeqGold RNA pure (PeqLab, Germany) kit according to manufacturer’s instructions. For gene expression analysis, the following primers were used: Rib36 forward 5′-[…]-3′; reverse 5′-CCGGATATGAGGCAGCAG-3′; ATF6 forward 5′-[…]-3′; reverse 5′-[…]-3′. Each bar represents the mean of three independent experiments ± SEM. *p<0.05. B. Western blot analysis of ATF6 and its cleaved product (cATF6) in LNCaP cells stably expressing the empty vector control or the Bag-1 peptide. Anti-ATF6 specific antibody and an anti-HA specific antibody were used for the Western blot. β-actin antibody was used to determine equal loading control. Mouse monoclonal anti-ATF6 antibody was purchased from Imgenex (Hamburg, Germany), mouse monoclonal anti-HA antibody (HA.11 clone 16B12) was purchased from Covance (Munich, Germany) and anti-β-actin antibody was purchased from Abcam (Cambridge, UK). (TIF) Click here for additional data file.
On the technique in general: Immunoblotting shows a protein as a band on a membrane.

For assay [2], the system named is unfolded protein response in 22Rv.1 cells. The assay can be described thus: UPR modulation, Western blot / PCR in 22Rv.1 cells. It counts as cell-based. Here is the method:
Unless otherwise stated, stable transfection was carried out in 22Rv.1 or BPH-1 cells with 10 µg of plasmid DNA using FuGene 6™ (Roche Diagnostics Mannheim, Germany) Stably transfected 22Rv.1 cells were selected with 0.8 mg/ml while BPH-1 cell clones were selected with 1.2 mg/ml G418. LNCaP, PC3, DU145, PNT-2 and RWPE-1 cell clones were selected with 1 mg/ml G418. Specific downregulation of GRP78 expression was achieved by transfecting siRNA-duplexes (GRP78∶5′-[…]-3′) twice in 72 h using HiPerfect™ (Qiagen Hilden, Germany). siRNA against GFP (5′-[…]-3′) was used as a control. Western blot analysis was performed as previously described.
Figure 3 The Bag-1 peptide modulates the UPR and sensitizes 22Rv.1 cells to ER-stress. A. UPR modulation upon Bag-1 peptide overexpression. Pooled clones of 22Rv.1 cells transfected with pcDNA3.1-HA-Bag-1 68 amino acid peptide or an empty expression vector were treated with 300 nM thapsigargin (TG) for the indicated time points. Cells were lysed and subjected to Western blot analysis using the indicated antibodies or phospho-specific antibodies. B. The Bag-1 peptide sensitizes 22Rv.1 cells to ER-stress induced apoptosis. Pooled clones of 22Rv.1 transfected with the Bag-1 peptide or the empty expression vector were treated with thapsigargin (TG) or glucose-starved (GS) for 24 h. The cells were lysed and subjected to Western blot analysis using anti-PARP and caspase 4 specific antibodies. Anti-HA antibody was used to detect the HA-Bag-1 peptide. […] C. […] Pooled clones of 22Rv.1 expressing HA-tagged Bag-1 peptide or an empty expression vector were transfected with GRP78/BiP siRNA or control GFP siRNA. The cells were lysed and Western blot was carried out with anti-PARP, anti-GRP78 and anti-HA antibodies. β-actin antibody was used to determine the level of protein loaded on the gel.
as §2
Supplementary file pone.0045690.s004.tif: Figure S4 The Bag-1 peptide induces GCN2 phosphorylation. 22Rv.1 cells stably expressing the empty vector control or the Bag-1 peptide were treated with thapsigargin (300 nM) for 16 h and subjected to Western blot analysis using anti-phospho-GCN2, GCN2 and HA-specific antibodies. The filters used in this experiment for the GCN2 signals are the same filters used in Figure 3A. The HA-Bag-1 peptide and the β-actin signals are therefore identical to that of Figure 3A. (TIF) Click here for additional data file.

Assay [3] deals with T1, GST-fused GRP78 substrate binding domain (Homo sapiens, UniProt P11021).
T1 construct: GRP78-SBD (GRP78 409–651); made in house
The assay is described as follows: Fluorescence polarization competition assay. The following applies: displacement of 10 nM FITC-labeled Bag-1 7-mer from 0.75 mg/ml GST-GRP78 SBD; competitor 100 µM to 0.1 nM, Tris-GSH buffer. Here is the method: Fluorescence polarization assays were carried out using an Infinite F-200 reader (Tecan) with excitation at 490 nm and emission at 535 nm.
as §1, with “[…] The colonies were stained” for “FITC-peptide”, “quantified.” for “the FITC-peptide-protein complex were used as controls. Fluorescence polarization was determined as described above and IC50 values were determined in Sigma Plot.”
(In general: Polarisation of emitted light reports the rotation of a fluorescent probe.)

Assay [4] has as its target T2, GST-fused GRP78-SBD (GRP78 409-651) (UniProt P11021 409-651).
T2 construct: Used on beads in pull-downs and in solution (GST kept) in fluorescence polarisation; also called GST-GRP78(SBD); source: bacterially purified GST fusion (pGEX4T.1)
The assay is described as follows: fluorescence polarisation; competition: complex of 10 nM FITC-labeled 7-mer peptide and 0.75 mg/ml GST-fused GRP78 SBD against 100 µM to 0.1 nM unlabeled peptide in Tris-GSH buffer. The following applies: both partners purified.

The target of assay [5] is T2, GST-fused GRP78-SBD (GRP78 409-651). The assay can be described thus: fluorescence polarisation; 10 nM FITC-labeled 7-mer peptide with dilutions of GST-fused GRP78 SBD in Tris-GSH buffer (50 mM Tris, 10 mM reduced glutathione, 0.1% BSA, pH 8.0), 5 h at room temperature. The following applies: both partners purified.

Where no end group is shown, it is not given here.

T2 sequence (P11021 409-651): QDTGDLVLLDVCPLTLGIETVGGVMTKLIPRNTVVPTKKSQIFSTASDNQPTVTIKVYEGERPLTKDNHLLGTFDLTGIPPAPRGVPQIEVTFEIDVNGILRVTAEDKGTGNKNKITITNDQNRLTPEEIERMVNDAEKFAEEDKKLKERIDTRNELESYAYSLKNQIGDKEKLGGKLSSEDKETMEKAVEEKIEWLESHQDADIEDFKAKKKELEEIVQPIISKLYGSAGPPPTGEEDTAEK
T1 sequence (P11021 409-651): as above

Turning to “19-mer mutant: 202–220 amino acid peptide with mutated core (VML exchanged with alanine residues) (TPLSALGIQDGCRAAAIGK; also: HA tag, end not given here)”, the “22Rv.1 growth in clonogenic assay” value with 22Rv.1 cells was “significantly reduced the ability of the 19 amino acid sequence to inhibit 22Rv.1 cell growth”.
On to `C/C=C(/C)C(=O)O[C@H]1C(C)=C2[C@H]([C@@H]1OC(=O)CCCCCCC)[C@@](C)(OC(C)=O)C[C@H](OC(=O)CCC)[C@@]1(O)[C@H]2OC(=O)[C@@]1(C)O` [thapsigargin, reference compound], for which the “ATF6 expression (protein level)” value in assay [1] was “also seen in LNCaP prostate cancer cells at the protein level”. Also, the ATF6 expression result in assay [2] (22Rv.1 cells, thapsigargin 300 nM) was “enhanced the expression of this gene”. For the same molecule, the UPR activation result in assay [2] (22Rv.1 vector control cells, 300 nM thapsigargin) is listed as “all three arms of the UPR were activated”.
As for RAAAIGK [RAAAIGK], the half-maximal inhibitory concentration (IC50) (as a rule, the point on the concentration scale where inhibition reaches its midpoint) in assay [3] is above 100 µM.
Regarding RAAAIGK [triple mutant Bag-1 7-mer peptide (214RAAAIGK220)], the IC50 in assay [4] is above 100000 nM.

B1: FITC-labeled 7-mer Bag-1 peptide (214RVMLIGK220) (peptide)
peptide: RVMLIGK
modifications: also: FITC label, place not given here
notes: core peptide of Bag-1, residues 214-220 on Bag-1L numbering; also called FITC-peptide
Consider B1, for which binding in assay [5] was put at a Kd of 5.7 ± 0.8 µM.

B2: wild-type Bag-1 7-mer peptide (214RVMLIGK220), unlabeled (peptide)
peptide: RVMLIGK
notes: core peptide of Bag-1, residues 214-220 on Bag-1L numbering; also called seven amino acid core peptide
In assay [4], B2 showed an IC50 of 2600 ± 500 nM.
